Measured values as given in patent US8188101B2 (AstraZeneca AB, priority 2008, dated 2012).

tested on: Aβ42 release; assay: Aβ release in cells stably expressing APPswe, Meso Scale Discovery electrochemiluminescence assay; assay type: cell-based, Human; details: Homo sapiens, SH-SY5Y, HEK or SH-SY5Y cells stably expressing APPswe, 4-6 hours incubation with test compound
Summary of the method: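 HEK or SH-SY5Y cells stably expressing APPswe, plated 15-24 h, then exposed to compound (diluted ×200 into fresh medium) for 4-6 h at 37 °C. Secreted Aβ42 in medium quantified by Meso Scale Discovery electrochemiluminescence with specific antibodies; cytotoxicity checked by cellular ATP content.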

Compound | IC50 [nM]
COc1cc(Nc2nc3c(c(Cc4ccccc4)n2)CN(CC#N)CC3)ccc1-n1cnc(C)c1 [Example 105, 2-(4-Benzyl-2-(3-methoxy-4-(4-methyl-1H-imidazol-1-yl)phenylamino)-7,8-dihydropyrido[4,3-d]pyrimidin-6(5H)-yl)acetonitrile] | 15.8
Cc1nccn1-c1ccc(Nc2nc3c(c(Cc4ccccc4)n2)C[S+]([O-])CC3)cc1 (stereo not drawn) [Example 114, 4-Benzyl-N-[4-(2-methyl-1H-imidazol-1-yl)phenyl]-7,8-dihydro-5H-thiopyrano[4,3-d]pyrimidin-2-amine 6-oxide] | 1580
CS(=O)(=O)N1CCc2nc(Nc3ccc(-c4cnco4)cc3)nc(N(CCO)c3ccccc3)c2C1 [Example 21, 2-((6-(Methylsulfonyl)-2-(4-(oxazol-5-yl)phenylamino)-5,6,7,8-tetrahydropyrido[4,3-d]pyrimidin-4-yl)(phenyl)amino)ethanol] | 1260
CC(=O)N1CCc2nc(Nc3ccc(-c4cnco4)cc3)nc(N3CCCC(CO)C3)c2C1 (stereo not drawn) [Example 93, 1-(4-(3-(Hydroxymethyl)piperidin-1-yl)-2-(4-(oxazol-5-yl)phenylamino)-7,8-dihydropyrido[4,3-d]pyrimidin-6(5H)-yl)ethanone] | 6310
CN1CCc2nc(Nc3ccc(-c4cnco4)cc3)nc(N(CCO)c3ccccc3)c2C1 [Example 2, 2-((6-Methyl-2-(4-(oxazol-5-yl)phenylamino)-5,6,7,8-tetrahydropyrido[4,3-d]pyrimidin-4-yl)(phenyl)amino)ethanol] | 398
CN1CCc2nc(Nc3ccc(-c4cnco4)cc3)nc(NCC3CCOCC3)c2C1 [Example 85, 6-Methyl-N2-(4-(oxazol-5-yl)phenyl)-N4-((tetrahydro-2H-pyran-4-yl)methyl)-5,6,7,8-tetrahydropyrido[4,3-d]pyrimidine-2,4-diamine] | 251
Cc1cc(C(C)c2ccccc2)nc(Nc2ccc(-n3ccnc3C)cc2)n1 (stereo not drawn) [Example 87, 4-Methyl-N-(4-(2-methyl-1H-imidazol-1-yl)phenyl)-6-(1-phenylethyl)pyrimidin-2-amine] | 316
CN(C)CC(=O)N1CCc2nc(Nc3ccc(-c4cnco4)cc3)nc(N(CCO)c3ccccc3)c2C1 [Example 17, 2-(Dimethylamino)-1-(4-((2-hydroxyethyl)(phenyl)amino)-2-(4-(oxazol-5-yl)phenylamino)-7,8-dihydropyrido[4,3-d]pyrimidin-6(5H)-yl)ethanone] | 1580
O=C(CO)N1CCc2nc(Nc3ccc(-c4cnco4)cc3)nc(N(CCO)c3ccccc3)c2C1 [Example 19, 2-Hydroxy-1-(4-((2-hydroxyethyl)(phenyl)amino)-2-(4-(oxazol-5-yl)phenylamino)-7,8-dihydropyrido[4,3-d]pyrimidin-6(5H)-yl)ethanone] | 794
CCCN1CCc2nc(Nc3ccc(-c4cnco4)cc3)nc(N(CCO)c3ccccc3)c2C1 [Example 14, 2-((2-(4-(Oxazol-5-yl)phenylamino)-6-propyl-5,6,7,8-tetrahydropyrido[4,3-d]pyrimidin-4-yl)(phenyl)amino)ethanol] | 126
COc1cccc(Cc2nc(Nc3ccc(-n4cnc(C)c4)c(OC)c3)nc3c2CN(C(C)=O)CC3)c1 [Example 96, 1-(2-(3-Methoxy-4-(4-methyl-1H-imidazol-1-yl)phenylamino)-4-(3-methoxybenzyl)-7,8-dihydropyrido[4,3-d]pyrimidin-6(5H)-yl)ethanone] | 63.1
CN(C)C(=O)N1CCc2nc(Nc3ccc(-c4cnco4)cc3)nc(N(CCO)c3ccccc3)c2C1 [Example 25, 4-((2-Hydroxyethyl)(phenyl)amino)-N,N-dimethyl-2-(4-(oxazol-5-yl)phenylamino)-7,8-dihydropyrido[4,3-d]pyrimidine-6(5H)-carboxamide] | 794
COC(c1ccccc1)c1nc(Nc2ccc(-n3ccnc3C)cc2)nc2c1COCC2 (stereo not drawn) [Example 65, 4-(Methoxy(phenyl)methyl)-N-(4-(2-methyl-1H-imidazol-1-yl)phenyl)-7,8-dihydro-5H-pyrano[4,3-d]pyrimidin-2-amine] | 316
COc1cccc(Cc2nc(Nc3ccc(-n4ccnc4C)cc3)nc3c2CN(C(C)=O)CC3)c1 [Example 97, 1-(4-(3-Methoxybenzyl)-2-(4-(2-methyl-1H-imidazol-1-yl)phenylamino)-7,8-dihydropyrido[4,3-d]pyrimidin-6(5H)-yl)ethanone] | 631
Cc1nccn1-c1ccc(Nc2nc3c(c(Cc4ccccc4F)n2)CN(CCO)CC3)cc1 [Example 56, 2-(4-(2-Fluorobenzyl)-2-(4-(2-methyl-1H-imidazol-1-yl)phenylamino)-7,8-dihydropyrido[4,3-d]pyrimidin-6(5H)-yl)ethanol] | 398
CC(=O)N1CCc2nc(Nc3ccc(-n4ccnc4C)cc3)nc(CCC3CCCCC3)c2C1 [Example 58, 1-(4-(2-Cyclohexylethyl)-2-(4-(2-methyl-1H-imidazol-1-yl)phenylamino)-7,8-dihydropyrido[4,3-d]pyrimidin-6(5H)-yl)ethanone] | 200
Cc1nccn1-c1ccc(Nc2nc3c(c(Cc4ccccc4)n2)CN(C)CC3)cc1 [Example 42, 4-Benzyl-6-methyl-N-(4-(2-methyl-1H-imidazol-1-yl)phenyl)-5,6,7,8-tetrahydropyrido[4,3-d]pyrimidin-2-amine] | 398
CC(=O)N1CCc2nc(Nc3ccc(-c4cnco4)cc3)nc(N3c4ccccc4C[C@@H]3CO)c2C1 [Example 37] | 10000
CN1CCc2nc(Nc3ccc(-c4cnco4)cc3)nc(Nc3ccccc3)c2C1 [Example 4, 6-Methyl-N2-(4-(oxazol-5-yl)phenyl)-N4-phenyl-5,6,7,8-tetrahydropyrido[4,3-d]pyrimidine-2,4-diamine] | 316
COc1cc(Nc2nc3c(c(C(C)n4nc(C)cc4C)n2)CN(C(C)=O)CC3)ccc1-n1cnc(C)c1 (stereo not drawn) [Example 108, 1-(4-(1-(3,5-Dimethyl-1H-pyrazol-1-yl)ethyl)-2-(3-methoxy-4-(4-methyl-1H-imidazol-1-yl)phenylamino)-7,8-dihydropyrido[4,3-d]pyrimidin-6(5H)-yl)ethanone] | 501
Cc1nccn1-c1ccc(Nc2nc3c(c(CC4CCOCC4)n2)CN(CCO)CC3)cc1 [Example 62, 2-(2-(4-(2-Methyl-1H-imidazol-1-yl)phenylamino)-4-((tetrahydro-2H-pyran-4-yl)methyl)-7,8-dihydropyrido[4,3-d]pyrimidin-6(5H)-yl)ethanol] | 10000
COc1cc(Nc2nc3c(c(Cc4ccccc4)n2)CN(CCO)CC3)ccc1-n1cnc(C)c1 [Example 75, 2-(4-Benzyl-2-(3-methoxy-4-(4-methyl-1H-imidazol-1-yl)phenylamino)-7,8-dihydropyrido[4,3-d]pyrimidin-6(5H)-yl)ethanol] | 25.1
COc1cc(Nc2nc3c(c(Cc4ccccc4)n2)CN(C)CC3)ccc1-n1cnc(C)c1 [Example 68, 4-Benzyl-N-(3-methoxy-4-(4-methyl-1H-imidazol-1-yl)phenyl)-6-methyl-5,6,7,8-tetrahydropyrido[4,3-d]pyrimidin-2-amine] | 20
CN1CCc2nc(Nc3ccc(-c4cnn(C)c4)cc3)nc(N(CCO)c3ccccc3)c2C1 [Example 38, 2-((6-Methyl-2-(4-(1-methyl-1H-pyrazol-4-yl)phenylamino)-5,6,7,8-tetrahydropyrido[4,3-d]pyrimidin-4-yl)(phenyl)amino)ethanol] | 398
